# Results published in patent US20170128467A1, “ANTIMICROBIAL PHARMACEUTICAL COMPOSITIONS WITH MULTIPLE DRUG RESISTANCE INHIBITING PROPERTIES” (priority 2014, published 2017).
# Key:
# Bacillus subtilis cells = assay: Growth inhibition assay in liquid medium, B. subtilis; assay type: cell-based; settings: for antimicrobial activity (growth inhibition): gram-positive
# Method: (§1) Growing in the liquid medium method was selected as the method to test antibacterial activity of SkQ1. Overnight bacterial cells cultures were diluted in fresh LB media. Bacterial cell culture (5×10^6 cells/ml) were inoculated 200 μl into 96-well plates (Eppendorf, Eppendorf AG, Hamburg, Germany) and SkQ1 or CnTPP were added to reach various final concentrations in the range from 0.5 to 200 μM. Cells were left to grow for 21 hours at 37° C. Optical density at 600 nm was measured using an AnthosZenyth 3100 multimode reader (Anthos Labtec, Austria) during incubation.
# (§2) We selected Ecsherishia coli cells as a Gram-negative model organism and Bacillus subtilis cells as a Gram-positive model organism. SkQ1 was selected as a model compound of formula 1 with antioxidant moiety. To select a proper concentration of a compound of formula 1 we performed growth inhibition assays for several SkQ1 concentrations (see FIGS. 8 A and B). It can be concluded from the results of this experiment that 1 μM SkQ1 is the minimal inhibitory concentration (MIC) for B. subtilis cells.
# ΔTolC (JW5503) = assay: Growth inhibition assay, TolC deletion mutant; assay type: cell-based, Escherichia coli K-12; settings: for IMPOSSIBILITY OF GROWTH: ΔTolC
# Method: as §1
# (§3) In this experiment we have tested whether To1C-dependent transporter is responsible for resistance of E. coli's cells to SkQ1. In the experiment we used single-gene knockout mutants from Keio collection [Baba T., et al., (2006)]. Construction of Escherichia coli K-12 in-frame, single-gene knockout mutants: the Keio collection. Mol. Syst. Biol. 2, 2006.0008.]. […] We used other knockout mutants of genes encoding proteins of transporters that require To1C for their function. […] In contrast, deletion of genes acrA or acrB dramatically changed the sensitivity of E. coli's cells to SkQ1.
# Table 1. Results of growth inhibition assay for deletion mutants of genes encoding To1C-required efflux pumps proteins. Deletion strains JW5503 (devoid of the to1C gene), JW0452 (devoid of the acrA gene), JW0451 (devoid of the acrB gene), JW2454 (devoid of the acrD gene), JW3233 (devoid of the acrE gene), JW3234 (devoid of the acrF gene), JW5338 (devoid of the mdtA gene), JW2060 (devoid of the mdtB gene), JW2061 (devoid of the mdtC gene), JW3481 (devoid of the mdtE gene), and JW3482 (devoid of the mdtF gene) have been described in Baba T., et al., (2006). Construction of Escherichia coli K-12 in-frame, single-gene knockout mutants: the Keio collection. Mol. Syst. Biol. 2, 2006.0008.
# AcrAB-To1C transporter = target: T1, AcrAB-To1C transporter (Escherichia coli, UniProt P31224); assay: Ethidium bromide accumulation experiment; assay type: cell-based; settings: SkQ1 50 μM; ethidium bromide 20 μg/ml
# T1 construct: endogenous in cells
# Method: For emulation of cell membrane leakage, bacterial cells were resuspended in deionized water. Ethidium bromide was added (20 μg/ml) and the change of fluorescence intensity was recorded on Fluorat-02-Panorama. For detecting of the accumulation of ethidium bromide, SkQ1 was added to a concentration of 50 μM.
# To confirm whether AcrAB-To1C is the appropriate transporter, we used a test based on the measurement of ethidium bromide leakage through intact bacterial membranes. […] Bacterial cells were prepared and resuspended in PBS. For emulation of cell membrane leakage bacterial cells were resuspended in deionized water (Milli-Q water purification system, EMD Millipore, Billerica, Mass.). Ethidium bromide was added (20 μg/ml) and the change of fluorescence intensity was recorded on Fluorat-02-Panorama (Lumex Instruments, Russia) spectrofluorometer. For increasing the accumulation of ethidium bromide, SkQ1 was added to reach a concentration of 50 μM. […] We observed ethidium bromide accumulation when ethidium bromide concentration was 40-times less than MIC for E. coli cells that only can be the result of collateral action of SkQ1 and ethidium bromide as substrates for AcrAB-To1C transporter.
# [1] = target: T2, MDR pumps (Pdr5p) of yeast cells (Saccharomyces cerevisiae, UniProt P33302); assay type: cell-based; settings: 2 μM compound
# T2 construct: We measured the efflux of R6G from intact yeast cells using fluorometric method; endogenous in cells; host or cells: S. cerevisiae W303-1A (WT); AD1-8 as MDR-negative control
# Method: The ordinate corresponds to the ratio of slopes in a and b.
# To measure the relative rate of rhodamine 6G efflux we used fluorometric assay implemented by Kolaczkowsky et al., with few modifications. Cells were grown overnight in 40 ml in liquid YPD to density of 0.5-1*10^7 cells/ml, washed twice with cold sterile water and resuspended in 10 ml phosphate buffer saline supplemented with 5 mM 2-deoxyglucose and 2.5 mM 2,4-dinitrophenol. Cell suspension was incubated for 45 minutes on a rotatory shaker, then the inhibitors were removed by two cycles of centrifugation/resuspension in cold water. The energy deprived cells were resuspended in 10 ml of PBS and then stained with R6G (10 μM) for 30 minutes. Then cell suspension was pelleted, resuspended in equal volume of PBS and stored on ice for 1-5 hours. The measurements of efflux were performed with FluoroMax-3 fluorometer system with exication wavelength set to 480 nm, and emission wavelength set to 560 nm. The R6G efflux was initiated by addition of 0.1% glucose, cell density in fluorometric cuvette was 10^6 cells/ml.
# [2] = test system: S. cerevisiae W303-1A and PGAL-PDR5, PGAL-SNQ2, PGAL-YOR1 strains; assay: Survival assay (CFU) of yeast treated with C12TPP or SkQ1; assay type: cell-based, Saccharomyces cerevisiae; settings: galactose-grown cells, 3 hours treatment
# Text: FIG. 1A show the chemical structure of dodecyltriphenylphosphonium C12TPP and its plastoquinone derivative (SkQ1) used in this study.
# In this example, we used W303-1A S. cerevisiae strains and its derivatives: AD1-8 with deletions of eight MDR genes [W303-1A, yor1::hisG, snq2::hisG, pdr5:shisG, pdr10::hisG, pdr11::hisG, ycf1::hisG, pdr3::hisG, pdr15::hisG][4]□, PGAL-PDR5 [W303-1A HIS3::PGAL-PDR5], PGAL-SNQ2 [W303-1A HIS3::PGAL-SNQ2], and […] [W303-1AHIS3::PGAL-YOR1](this study). Cells were grown in YPD medium (2% glucose, 1% bactopeptone, 1% yeast extract), or in YPGal (2% galactose, 1% bactopepton, 1% yeast extract). For genetic screening and maintenance of strains with conditionally expressed genes synthetic drop-out media YNB-Leu or YNB-His were used according to Sherman 2000 [5]. The growth rates were measured by increase of light scattering (λ=550 nm) in liquid yeast culture.
# Exponentially grown cells were taken and treated with indicated amounts of C12TPP or SKQ1 for 3 hours. Then cell suspensions were plated on solid YPD medium and incubated for 48 hours, the number of formed colonies were counted. 100% refers to the number of colony forming units (CFU) in yeast suspension at the beginning of experiment.
# ΔAcrA (JW0452) = assay: Growth inhibition assay, AcrA deletion mutant; assay type: cell-based, Escherichia coli K-12
# Method: as §1, §3
# (§4) Table 1. Results of growth inhibition assay for deletion mutants of genes encoding To1C-required efflux pumps proteins. […]
# E. coli = assay: Growth inhibition assay in liquid medium, E. coli; assay type: cell-based, Escherichia coli
# Method: as §1, §2
# ΔAcrB (JW0451) = assay: Growth inhibition assay, AcrB deletion mutant; assay type: cell-based, Escherichia coli K-12
# Method: as §1, §3, §4
# T1 sequence (P0AE06 25-397): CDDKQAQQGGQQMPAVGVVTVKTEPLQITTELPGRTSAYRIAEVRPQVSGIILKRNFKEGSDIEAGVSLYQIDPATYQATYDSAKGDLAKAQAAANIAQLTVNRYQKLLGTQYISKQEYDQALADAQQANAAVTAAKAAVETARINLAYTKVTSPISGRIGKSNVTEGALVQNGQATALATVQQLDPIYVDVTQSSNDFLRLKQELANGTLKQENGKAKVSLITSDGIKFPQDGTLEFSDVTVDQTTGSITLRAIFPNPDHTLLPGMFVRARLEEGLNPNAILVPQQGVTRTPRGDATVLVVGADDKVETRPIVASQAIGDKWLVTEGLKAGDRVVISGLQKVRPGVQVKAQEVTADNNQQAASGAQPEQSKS
# T1 sequence (P02930 23-493, further chain): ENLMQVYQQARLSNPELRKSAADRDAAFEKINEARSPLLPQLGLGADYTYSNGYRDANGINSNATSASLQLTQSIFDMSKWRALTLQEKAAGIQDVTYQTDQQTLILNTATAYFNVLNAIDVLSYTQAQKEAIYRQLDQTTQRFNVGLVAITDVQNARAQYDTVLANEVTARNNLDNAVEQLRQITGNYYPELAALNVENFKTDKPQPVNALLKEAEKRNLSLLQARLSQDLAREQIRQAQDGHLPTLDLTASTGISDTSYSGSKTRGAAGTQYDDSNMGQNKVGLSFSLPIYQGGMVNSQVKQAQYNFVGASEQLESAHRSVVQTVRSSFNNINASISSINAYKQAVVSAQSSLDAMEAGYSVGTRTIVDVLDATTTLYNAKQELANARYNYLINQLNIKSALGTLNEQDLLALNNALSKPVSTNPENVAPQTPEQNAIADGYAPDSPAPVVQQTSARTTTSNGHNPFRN
# T1 sequence (P31224 whole entry): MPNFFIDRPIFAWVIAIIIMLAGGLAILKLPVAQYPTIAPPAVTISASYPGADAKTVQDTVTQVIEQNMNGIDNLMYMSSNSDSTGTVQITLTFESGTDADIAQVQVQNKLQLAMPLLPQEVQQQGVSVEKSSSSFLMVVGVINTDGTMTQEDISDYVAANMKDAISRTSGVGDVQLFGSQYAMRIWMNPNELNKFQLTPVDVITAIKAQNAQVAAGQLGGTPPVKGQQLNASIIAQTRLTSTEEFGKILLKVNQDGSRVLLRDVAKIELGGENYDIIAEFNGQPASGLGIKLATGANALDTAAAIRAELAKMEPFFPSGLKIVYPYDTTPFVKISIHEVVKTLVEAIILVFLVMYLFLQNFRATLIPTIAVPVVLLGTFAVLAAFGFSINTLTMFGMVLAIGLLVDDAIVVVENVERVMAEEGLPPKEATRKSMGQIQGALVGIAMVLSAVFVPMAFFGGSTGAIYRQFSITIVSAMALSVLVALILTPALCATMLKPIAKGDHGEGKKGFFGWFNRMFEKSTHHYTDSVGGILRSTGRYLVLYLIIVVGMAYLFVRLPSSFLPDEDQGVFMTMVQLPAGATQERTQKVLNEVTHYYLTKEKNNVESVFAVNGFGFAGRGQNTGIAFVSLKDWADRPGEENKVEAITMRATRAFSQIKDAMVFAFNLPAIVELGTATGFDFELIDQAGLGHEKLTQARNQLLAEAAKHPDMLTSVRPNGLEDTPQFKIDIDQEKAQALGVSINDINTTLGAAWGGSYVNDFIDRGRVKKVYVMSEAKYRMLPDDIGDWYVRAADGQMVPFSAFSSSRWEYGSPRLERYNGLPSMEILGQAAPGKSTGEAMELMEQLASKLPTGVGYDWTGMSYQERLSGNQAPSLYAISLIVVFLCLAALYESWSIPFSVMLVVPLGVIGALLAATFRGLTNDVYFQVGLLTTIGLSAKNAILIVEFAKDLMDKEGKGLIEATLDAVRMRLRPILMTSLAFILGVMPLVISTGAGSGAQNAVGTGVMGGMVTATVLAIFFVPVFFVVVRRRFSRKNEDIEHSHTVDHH
# T2 sequence (P33302 whole entry): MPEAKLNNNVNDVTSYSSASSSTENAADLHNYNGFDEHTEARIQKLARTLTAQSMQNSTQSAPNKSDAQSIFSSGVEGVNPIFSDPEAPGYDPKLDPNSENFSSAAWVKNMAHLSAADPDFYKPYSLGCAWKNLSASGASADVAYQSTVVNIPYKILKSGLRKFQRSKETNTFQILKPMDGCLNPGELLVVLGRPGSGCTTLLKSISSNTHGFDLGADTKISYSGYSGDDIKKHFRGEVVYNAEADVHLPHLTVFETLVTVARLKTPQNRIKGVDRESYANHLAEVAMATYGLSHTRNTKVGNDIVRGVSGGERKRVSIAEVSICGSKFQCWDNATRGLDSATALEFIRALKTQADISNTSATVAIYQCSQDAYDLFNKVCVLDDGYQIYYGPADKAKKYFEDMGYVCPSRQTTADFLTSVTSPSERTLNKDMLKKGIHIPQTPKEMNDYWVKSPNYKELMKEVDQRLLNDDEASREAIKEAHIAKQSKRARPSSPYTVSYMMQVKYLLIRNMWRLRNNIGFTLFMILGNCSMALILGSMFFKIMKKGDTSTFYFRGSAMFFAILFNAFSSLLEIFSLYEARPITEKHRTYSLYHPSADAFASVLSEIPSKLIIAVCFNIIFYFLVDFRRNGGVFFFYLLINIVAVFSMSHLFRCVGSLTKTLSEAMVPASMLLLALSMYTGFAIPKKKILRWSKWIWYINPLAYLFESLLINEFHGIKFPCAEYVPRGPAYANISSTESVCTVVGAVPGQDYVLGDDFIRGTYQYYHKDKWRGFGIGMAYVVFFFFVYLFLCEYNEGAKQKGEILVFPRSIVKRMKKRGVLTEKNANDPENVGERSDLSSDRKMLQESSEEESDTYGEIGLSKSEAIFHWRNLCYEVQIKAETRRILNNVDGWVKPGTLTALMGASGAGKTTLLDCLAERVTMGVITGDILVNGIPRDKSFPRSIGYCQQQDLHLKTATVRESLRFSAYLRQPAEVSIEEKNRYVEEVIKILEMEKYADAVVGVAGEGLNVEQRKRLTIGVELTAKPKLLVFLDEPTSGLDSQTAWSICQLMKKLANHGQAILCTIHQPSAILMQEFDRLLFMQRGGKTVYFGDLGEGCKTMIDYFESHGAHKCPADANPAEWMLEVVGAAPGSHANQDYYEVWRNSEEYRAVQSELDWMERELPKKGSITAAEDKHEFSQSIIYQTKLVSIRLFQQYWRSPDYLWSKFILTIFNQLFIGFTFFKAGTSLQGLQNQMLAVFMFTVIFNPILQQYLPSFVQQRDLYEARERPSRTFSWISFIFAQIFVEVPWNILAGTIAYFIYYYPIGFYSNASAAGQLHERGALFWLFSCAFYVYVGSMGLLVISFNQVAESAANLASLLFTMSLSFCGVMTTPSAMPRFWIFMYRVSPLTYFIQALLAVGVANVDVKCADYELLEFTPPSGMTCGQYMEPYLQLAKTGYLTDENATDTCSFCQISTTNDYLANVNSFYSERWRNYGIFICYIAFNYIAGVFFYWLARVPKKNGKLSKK
compound,measurement,setting,value
"CCCCCCCC[P+](c1ccccc1)(c1ccccc1)c1ccccc1 [C8TPP, octyltriphenylphosphonium]",antimicrobial activity (growth inhibition),Bacillus subtilis cells,have antimicrobial activity
same,antimicrobial activity (growth inhibition),ΔTolC (JW5503); To1C-deletion mutant,have antimicrobial activity
"CC1=C(C)C(=O)C(CCCCCCCCCC[P+](c2ccccc2)(c2ccccc2)c2ccccc2)=CC1=O [SkQ1, plastoquinonildecyltriphenylphosphonium]",ethidium bromide leakage through bacterial membranes (accumulation),AcrAB-To1C transporter,comparable to ethidium bromide leakage during osmotic shock
same,substrate of AcrAB-To1C transporter,AcrAB-To1C transporter,is a substrate for AcrAB-To1C transporter
same,MIC,"Bacillus subtilis cells; Bacillus subtilis, LB media, 37° C., read-out: minimal inhibitory concentration (MIC)",1 µM
same,antimicrobial activity (growth inhibition),Bacillus subtilis cells,strong antimicrobial activity
same,inhibition of glucose-induced R6G efflux from yeast cells,[1],much more efficient
same,inhibition of glucose-induced R6G efflux from yeast cells pretreated with NaN3,[1]; cells pretreated with 10 mM NaN3,inhibits glucose-induced R6G efflux
same,MBC,"ΔTolC (JW5503); Escherichia coli, read-out: minimal bactericidal concentration",~2 µM
same,IMPOSSIBILITY OF GROWTH,ΔTolC (JW5503); 5 μM,YES
same,IMPOSSIBILITY OF GROWTH,ΔTolC (JW5503); 30 μM,YES
same,resistance of cells (survival) under overexpression of MDR pump genes,[2],did not observe any effect of MDR overexpression
same,IMPOSSIBILITY OF GROWTH,ΔAcrA (JW0452); 5 μM,YES
same,IMPOSSIBILITY OF GROWTH,ΔAcrA (JW0452); 30 μM,YES
same,growth inhibition at 1 μM,E. coli; 1 μM SkQ1,did not inhibit significantly growth
same,MIC,"E. coli; Escherichia coli, LB media, 37° C., read-out: minimal inhibitory concentration (MIC)",50 µM
same,antimicrobial activity (growth inhibition),E. coli; gram-negative,mild antimicrobial activity
same,IMPOSSIBILITY OF GROWTH,ΔAcrB (JW0451); 5 μM,YES
same,IMPOSSIBILITY OF GROWTH,ΔAcrB (JW0451); 30 μM,YES
CC1=C(C)C(=O)C(CCCCCCCCCC[P+](c2ccccc2)(c2ccccc2)c2ccccc2)=C(C)C1=O [SkQ3],antimicrobial activity (growth inhibition),Bacillus subtilis cells,have antimicrobial activity
CC1=C(C)C(=O)C(CCCCC[P+](c2ccccc2)(c2ccccc2)c2ccccc2)=CC1=O [SkQ5],antimicrobial activity (growth inhibition),Bacillus subtilis cells,have antimicrobial activity
CC1=CC(=O)C(CCCCCCCCCC[P+](c2ccccc2)(c2ccccc2)c2ccccc2)=CC1=O [SkQT-para],antimicrobial activity (growth inhibition),Bacillus subtilis cells,have antimicrobial activity
